Assay results as given in PMC11578372, “ProT‐Diff: A Modularized and Efficient Strategy for De Novo Generation of Antimicrobial Peptide Sequences by Integrating Protein Language and Diffusion Models” (Advanced Science, 2024).
Like-named read-outs stand apart in the source and are kept apart here. Where no end group is shown, it is not given here.

Legend:
E. coli [1] = type: cell-based, Escherichia coli
Description: (§1) For the MIC determination of selected AMPs, 100 ul bacterial culture with an OD600 value of ≈0.1 was incubated with AMPs at concentrations ranging from 0 to 100 µM at 37 °C for 15–18 h. Herein, the MIC was determined as the minimum concentration of AMPs at which no detectable bacterial growth was observed.
(§2) All experiments were conducted with a minimum of four independent replicates. Student's t‐test was used to compare the means between the experimental and control groups (two‐sided).

[2] = Cytotoxicity against mammalian cells (CCK-8); type: cell-based; settings: human, 293T, CCK-8, n = 6, read-out: half maximal inhibitory concentration (IC50), cytotoxicity
Description: Cell Counting Kit 8 (CCK‐8) assay was used to assess the cytotoxicity of the AMPs against mammalian cells. Specifically, ≈4000 293T cells were seeded per well in a 96‐well cell culture plate (Corning, US), and were incubated at 37 °C with 5% CO2 for 24 h. Subsequently, the culture medium was replaced by different concentrations of AMPs solution diluted with the medium. The cells were co‐incubated with AMPs solution for an additional 24 h at 37 °C. And then, 10 µl of the CCK‐8 reagent (Beijing Lablead Biotech, China) was added to each well for 2 h of incubation at 37 °C. Finally, OD at 450 nm was measured using an imaging multimode microplate reader (Cytation 3, BioTek, US). Cell viability was defined as the percentage of each concentration relative to the control. Six replicates were used for the CCK‐8 assay.

E. coli DH5α = test: TEM of cell membrane damage; type: cell-based, Escherichia coli; settings: 1× MIC, 2–8 h, 37 °C
Description: Transmission Electron Microscopy (TEM) was employed to assess the cell membrane damage induced by AMPs. First, 50 µL of E. coli DH5α culture with an OD600 of ≈0.1 were mixed with 50 µL of AMPs solution (at 1× MIC) in a 96‐well plate. This mixture was incubated at 37 °C for 2, 4, 8, and 16 h. Following the incubation period, the bacteria were pelleted by centrifugation at 6,000 rpm for 5 min and fixed with 2.5% (vol/vol) glutaraldehyde in phosphate buffer (PB, 0.1 M, pH 7.4). Subsequently, the cells were postfixed with 1% (wt/vol) osmium tetraoxide in PB for 2 h at 4 °C, and were dehydrated through a graded ethanol series (30%, 50%, 70%, 80%, 90%, 100%, with each step lasting 7 min) before being put in pure acetone by two 10‐min steps. Following dehydration, the samples were subjected to infiltration using progressively mixed combinations of acetone and SPI‐PON812 resin (composed of 16.2 g SPI‐PON812, 10 g DDSA, and 8.9 g NMA) in ratios of 3:1, 1:1, and 1:3. The infiltration medium was then replaced with pure resin. Finally, the cells were embedded in pure resin containing 1.5% BDMA and polymerized for 12 h at 45 °C, followed by an additional 48 h polymerization at 60 °C. Ultrathin sections (70 nm thick) were obtained using a microtome (Leica EM UC6), double‐stained with uranyl acetate and lead citrate, and examined using a transmission electron microscope (FEI Tecnai Spirit 120 kV).

all tested bacteria = type: cell-based
Source text: Gram‐negative bacteria include E. coli DH5α, E. coli O157: H7 CICC 21530, S. typhimurium CICC 21484, A. baumannii AB6, and P. aeruginosa ATCC 15442. Gram‐positive bacteria included S. aureus ATCC 33591, Methicillin‐resistant MRSA ATCC 43300, B. subtilis ATCC 9372. L. sphaericus CCM 2177. Two E. coli clinical isolates with mgrB mutations from Tongji Hospital (Wuhan, China) were used in this study, namely E. coli mgrB mutant 2^# and E. coli mgrB mutant 23^#.
as §1, §2

E. coli mgrB mutant 23# = test: Lethal murine acute peritonitis model; type: in vivo, mouse (female BALB/c); settings: for survival versus PBS treatment group (log-rank test): AMP_2 single IP dose, penicillin 50000 units per kg every 12 h for 3 d
Description: Female BALB/c mice weighing ≈18 g and aged 5–6 weeks were used to build a lethal murine acute peritonitis model according to previously established protocols.^[ [43], [44], [45] ^] The mice were subjected to intraperitoneal injections with E. colimgrB mutant 23^#suspension (0.2 mL per mouse) at concentration of 5×10^5 CFU mL^−1, 5×10^6 CFU mL^−1, 5×10^7 CFU mL^−1, respectively. […] Each group comprised of eight mice.
Subsequently, the mice were administered varying doses of AMP_2 (0.125, 0.25, 0.5, 1, 2, and 4 mg kg^−1) immediately after infection. As controls, the infected mice received intraperitoneal injections of sterile PBS or underwent penicillin treatment (0.2 mL per mouse). The single dose of penicillin administered was 50000 units per kg, and the mice received antibiotic treatment every 12 h for 3 d. The behavior and survival of the animals were monitored over a 7‐day period. Blood samples were collected from the mice before euthanasia for routine blood tests. The experiments were conducted in groups of eight mice.

E. coli [3] = settings: cited from earlier work
Source text: (§3) In general, a higher antimicrobial potency in antimicrobial peptides often correlates with an elevated risk of heightened cytotoxicity and hemolytic activity. […] However, even at a ...

human cell = settings: 10 µg mL−1 (3.5 µM); cited from earlier work
Source text: as §3

[4] = 1 µg mL−1 (0.35 µM); cited from earlier work
Source text: as §3

Substance	MIC (E. coli [1]) [µM]	IC50 at 24 h [2] [µM]	bacterial morphology by TEM (E. coli DH5α)	MIC / spectrum against the tested bacteria (all tested bacteria) [µM]	body weight by the sixth day post-infection (E. coli mgrB mutant 23#; 4 mg kg−1 IP, surviving infected mice)	survival versus PBS treatment group (log-rank test) (E. coli mgrB mutant 23#; 8 mice per group)	routine blood components, treatment versus control group (E. coli mgrB mutant 23#; blood collected before euthanasia, infected mice treated with AMP_2)	protection of infected mice (survival) (E. coli mgrB mutant 23#; single IP dose 0.5 mg kg−1 immediately after infection, 5×10^5 CFU mL−1, 7-day observation, 8 mice per group)	MIC (E. coli [3]) [µM]	human cell death (human cell) [%]	hemolysis of cells [4] [%]
KWKFFKKIRKVGKKIRKVIKKIGKAVGAAAQAAGQAANA [AMP_2]	2.5	> 40	serious leakage of cellular contents	≤ 20	slight decrease in body weight	significant differences in survival	not significantly different	complete protection	–	–	–
melittin	–	–	–	–	–	–	–	–	1 to 15	> 50	50
penicillin [reference compound]	–	–	–	–	–	no significant difference	–	–	–	–	–
